Laboratory results: patent publication US11541049B2, “Tetrahydroisoquinoline derivatives, preparation process and use thereof” (SICHUAN KELUN-BIOTECH BIOPHARMACEUTICAL CO., LTD., priority 2018, dated 2023)

Tests used:
[1] = target: human coagulation factor VIIa (Homo sapiens (Human), UniProt P08709); test: Determination of inhibition of factor VIIa; format: biochemical
Protocol: Enzyme: human coagulation factor VIIa; manufacturer: Haematologic Technologies;
Substrate: Boc-VPR-AMC; R&D System;
Tissue factor: tissue factor F3; manufacturer: Sino Biological;
The test compounds were dissolved in assay buffer (50 mM Hepes, 150 mM NaCl, 5 mM CaCl2, pH 7.4) at a final concentration of 10 μM and 1 μM. Coagulation factor VIIa and tissue factor were mixed at an equimolar concentration. After incubation at 37° C. for 15 minutes, the test compound was further added. Incubation was conducted at room temperature for 10 minutes. Then the substrate (Boc-VPR-AMC) was added to initiate the reaction. For reading fluorescence signal value, enzyme kinetic mode was used. The wavelength of excitation light was 380 nm, and the wavelength of emission light was 460 nm. The IC50 was calculated in a similar manner to experimental Example 1.

in vivo = conditions: SD, rat, iv
Protocol: The clinical observation was carried out for 7 days after a single dose, and the body weight of the animals were measured. On the 8th day, blood samples were taken after anesthesia for detection of hematology, blood biochemistry, coagulation and other indicators. Observation was also conducted by gross anatomy.

[2] = Repeated dose toxicity study in SD rats, intravenous infusion, daily for 14 days; format: in vivo; conditions: rat, in vivo, daily for 14 days, SD rats, read-out: No-observed-adverse-effect level (NOAEL)
Protocol: The administration was repeated daily for 14 days, while clinical observation, body weight and food intake were recorded. […] Observation by gross anatomy and examination of histopathology were also conducted.

[3] = target: human coagulation factor Xa (Homo sapiens (Human), UniProt P00742); test: Determination of inhibition of factor Xa; format: biochemical
Sequence of human coagulation factor Xa (P00742 whole entry, looked up): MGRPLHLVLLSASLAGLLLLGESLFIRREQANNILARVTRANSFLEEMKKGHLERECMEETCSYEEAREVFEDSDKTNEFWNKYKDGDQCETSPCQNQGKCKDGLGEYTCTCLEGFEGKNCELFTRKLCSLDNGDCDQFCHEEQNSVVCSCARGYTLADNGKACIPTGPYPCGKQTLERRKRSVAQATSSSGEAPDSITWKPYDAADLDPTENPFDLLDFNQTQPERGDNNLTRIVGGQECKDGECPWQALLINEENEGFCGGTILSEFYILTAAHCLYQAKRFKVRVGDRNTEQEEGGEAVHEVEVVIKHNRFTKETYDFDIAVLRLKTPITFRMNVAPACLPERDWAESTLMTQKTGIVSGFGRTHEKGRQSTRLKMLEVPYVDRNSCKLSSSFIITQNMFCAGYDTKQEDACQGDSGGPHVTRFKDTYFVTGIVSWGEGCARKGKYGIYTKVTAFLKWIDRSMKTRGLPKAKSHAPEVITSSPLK
Sequence of human coagulation factor Xa (P00742 whole entry, looked up): as above
Protocol: Enzyme: human coagulation factor Xa; manufacturer: R&D System;
Substrate: Mca-RPKPVE-Nval-WRK(Dnp)-NH2; manufacturer: R&D;
The test compounds were dissolved in assay buffer (50 mM Tris, 150 mM NaCl, 10 mM CaCl2, 0.05% Brij35, pH 7.5) at a final concentration of 10 μM and 1 μM. Coagulation factor Xa and test compound were added to the well plate, and incubation was conducted at room temperature for 10 minutes after mixed thoroughly. The substrate (Mca-RPKPVE-Nval-WRK(Dnp)-NH2) was added to initiate the reaction. For reading fluorescence signal value, enzyme kinetic mode was used. The wavelength of excitation light was 320 nm, and the wavelength of emission light was 400 nm. The IC50 was calculated in a manner similar to experimental Example 1.

Sequence of human coagulation factor VIIa (P08709 whole entry, looked up): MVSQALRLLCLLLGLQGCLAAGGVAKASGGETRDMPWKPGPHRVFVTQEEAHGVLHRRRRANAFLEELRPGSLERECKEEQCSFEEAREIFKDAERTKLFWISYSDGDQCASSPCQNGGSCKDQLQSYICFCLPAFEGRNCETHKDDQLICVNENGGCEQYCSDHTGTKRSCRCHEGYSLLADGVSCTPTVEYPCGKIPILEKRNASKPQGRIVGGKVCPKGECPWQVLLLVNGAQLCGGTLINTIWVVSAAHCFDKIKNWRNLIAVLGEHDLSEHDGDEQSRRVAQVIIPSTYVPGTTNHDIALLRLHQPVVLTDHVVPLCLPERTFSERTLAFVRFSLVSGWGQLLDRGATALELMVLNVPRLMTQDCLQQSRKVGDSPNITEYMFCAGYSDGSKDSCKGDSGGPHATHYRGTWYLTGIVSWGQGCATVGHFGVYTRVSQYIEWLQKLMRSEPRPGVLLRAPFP
Sequence of human coagulation factor VIIa (P08709 whole entry, looked up): as above
Sequence of human coagulation factor VIIa (P13726 whole entry partner, looked up): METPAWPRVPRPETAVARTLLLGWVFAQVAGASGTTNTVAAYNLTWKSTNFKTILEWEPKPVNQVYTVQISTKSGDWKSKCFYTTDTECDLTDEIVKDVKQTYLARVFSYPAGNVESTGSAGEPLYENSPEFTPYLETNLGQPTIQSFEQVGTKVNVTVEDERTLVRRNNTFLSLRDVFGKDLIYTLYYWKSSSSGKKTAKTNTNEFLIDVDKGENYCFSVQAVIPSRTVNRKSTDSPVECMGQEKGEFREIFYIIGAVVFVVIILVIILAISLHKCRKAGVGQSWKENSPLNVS

In the case of `N[C@@H](CCCCNC(=O)CN1CC=C(c2cccc3c2CCN(C(=O)[C@H]2CC(c4cccc(Cl)c4F)=NO2)[C@@H]3C(=O)Nc2ccc(C(=O)O)cc2)CC1)C(=O)O` [Example 5, 4-((S)-5-(1-(2-(((S)-5-amino-5-carboxypentyl)amino)-2-oxoethyl)-1,2,3,6-tetrahydropyridin-4-yl)-2-((R)-3-(3-chloro-2-fluorophenyl)-4,5-dihydroisoxazole-5-carbonyl)-1,2,3,4-tetrahydroisoquinoline-1-carboxamido)benzoic acid], the “inhibitory effect on coagulation factor VIIa (in words)” value [1] is reported as “no significant inhibitory effect”, the IC50 ([1]; tested at final concentration of 10 μM and 1 μM, with tissue factor) is reported as over 10 µM and the MTD at 7 days (in vivo) is reported as at least 200 mg/kg. The NOAEL at 14 days [2] was 60 mg/kg, the “inhibitory effect on coagulation factor Xa (in words)” value [3] was “no significant inhibitory effect” and the IC50 ([3]; tested at final concentration of 10 μM and 1 μM) was about 10 µM.
